Where two headings read alike, the source gives them in different places.
Legend:
mTRPA1 = mTRPA1 (Mus musculus, UniProt Q8BLA8); assay: FDSS Ca2+-influx assay, HEK293 cells stably expressing mTRPA1; assay type: cell-based; parameters: expressed in transfected cells
Protocol: Ca^2+-influx assays were carried out using HEK293 cells stably expressing mTRPA1 channels with an FDSS screening system (Hamamatsu, Japan). Before the start of the assay, HEK293-mTRPA1 cells were plated onto poly-D-Lysine (40 μg ml^−1) coated 96-well black clear bottom plate with the cell density of 300 000 cells per milliliter in DMEM supplemented with 10% (vol/vol) fetal bovine serum, 200 μg ml^−1 Hygromycin B, 15 μg ml^−1 Blasticidin S HCL and 0.3 μg ml^−1 doxycycline, which could induce the expression of mTRPA1. The 96-well plate was then put in sterile incubator overnight. The following day, Ca^2+ influx dye Fluo-4/AM stock was diluted to 2 μM with bath solution, and added (50 μl per well) in place of the culture medium. The plate was then incubated to load the Fluo-4/AM into cells for 60 min at 37 °C in dark environment. During the incubation, we prepared the compound plate (96-well) and the margin of plate was set as blank control due to the fringing effect. At the end of dye loading period, the remnant dye was removed using bath solution to wash the 96-well cell plate twice and then add 80 μl bath solution per well.

hTRPA1 = target: T1, hTRPA1 (Homo sapiens, UniProt O75762); assay: cell-based; assay type: cell-based; conditions: for activation of hTRPA1 whole-cell currents: 30 μM, calcium-free external solution; for activation of hTRPA1 whole-cell currents by NTE inhibitors: 100 μM
T1 construct: expressed in transfected cells; host or cells: HEK293, transient, EGFP plasmid co-transfected
T1 sequence (O75762 whole entry): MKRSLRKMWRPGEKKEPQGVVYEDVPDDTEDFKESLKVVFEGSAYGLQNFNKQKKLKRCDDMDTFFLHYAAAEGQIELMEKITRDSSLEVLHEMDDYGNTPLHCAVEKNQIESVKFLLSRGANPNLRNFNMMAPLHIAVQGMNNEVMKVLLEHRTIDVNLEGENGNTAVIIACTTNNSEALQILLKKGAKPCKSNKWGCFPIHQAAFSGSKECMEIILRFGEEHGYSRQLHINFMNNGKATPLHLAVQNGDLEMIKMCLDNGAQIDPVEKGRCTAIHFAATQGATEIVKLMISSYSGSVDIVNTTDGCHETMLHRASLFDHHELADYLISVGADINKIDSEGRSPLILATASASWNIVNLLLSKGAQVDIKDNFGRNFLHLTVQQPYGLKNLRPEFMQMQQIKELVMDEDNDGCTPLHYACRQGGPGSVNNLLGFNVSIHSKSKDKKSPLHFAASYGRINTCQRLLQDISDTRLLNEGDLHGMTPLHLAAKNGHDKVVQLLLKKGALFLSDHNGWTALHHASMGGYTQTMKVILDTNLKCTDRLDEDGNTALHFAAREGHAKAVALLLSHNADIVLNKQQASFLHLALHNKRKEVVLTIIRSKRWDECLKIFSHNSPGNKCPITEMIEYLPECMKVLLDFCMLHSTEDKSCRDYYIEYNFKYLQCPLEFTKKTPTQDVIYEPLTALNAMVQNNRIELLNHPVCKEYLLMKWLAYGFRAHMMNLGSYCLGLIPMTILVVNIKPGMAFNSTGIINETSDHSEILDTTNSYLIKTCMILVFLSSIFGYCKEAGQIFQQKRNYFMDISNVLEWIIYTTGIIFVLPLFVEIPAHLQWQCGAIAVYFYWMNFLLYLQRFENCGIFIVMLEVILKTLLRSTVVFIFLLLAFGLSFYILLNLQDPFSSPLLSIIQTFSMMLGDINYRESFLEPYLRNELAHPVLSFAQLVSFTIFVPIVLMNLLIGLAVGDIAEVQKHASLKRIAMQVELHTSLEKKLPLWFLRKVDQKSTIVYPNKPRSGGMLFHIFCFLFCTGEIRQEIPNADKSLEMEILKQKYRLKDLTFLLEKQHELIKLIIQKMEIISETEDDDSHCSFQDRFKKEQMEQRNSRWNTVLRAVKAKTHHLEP
Protocol: Human embryonic kidney 293 (HEK293) cells were cultured in DMEM containing 10% (vol/vol) heat-inactivated fetal bovine serum, 100 units ml^−1 penicillin–streptomycin and 2 mM L-glutamine at 37 °C in a humidity-controlled sterile incubator with 5% CO2. All cell culture reagents were purchased from Life Technologies. HEK293 cells were transfected transiently with the corresponding plasmids using lipofectamine 2000 (Life Technologies). Transfection efficiency was monitored by co-transfecting EGFP plasmid which codes for the enhanced green fluorescent protein. Electrophysiological recordings were performed between 24 and 36 h after transfection.
(§1) Whole-cell patch-clamp recordings in DRG neurons (small diameter, […]) and HEK293 cells were operated at room temperature (23–25 °C) using EPC-10 amplifier and Patch Master Software (HEKA). […] Currents were sampled at 10 kHz and low-pass filtered at 2.9 kHz. The internal solution was as follows (in mM): 140 CsCl, 10 HEPES, 5 EGTA, 0.1 CaCl2 and 1 MgCl2, with pH adjusted to 7.2 by CsOH and osmolarity 295–300 mOsm. The calcium-free external solution contained (in mM) 140 NaCl, 5 KCl, 0.5 EGTA, 1 MgCl2, 10 Glucose and 10 HEPES, with pH adjusted to 7.4 by NaOH and osmolarity 300–310 mOsm. The 0.5 mM EGTA was replaced by 2 mM CaCl2 for the recordings in DRG neurons. TRPA1 currents development was monitored with repetitive injections of 300 ms duration voltage ramps from −100 to +100 mV every 2 s and the holding potential was set to 0 mV for 50 ms, existing in both sides of the voltage ramp. To record inward currents in DRG neurons, we conducted voltage clamp at holding membrane potential of −70 mV. Solutions were switched using a gravity-fed continuous focal perfusion system.

mouse DRG neurons [1] = assay: Whole-cell patch-clamp of small-diameter DRG neurons; assay type: cell-based
Protocol: (§2) DRG neurons were isolated from young C57 BL/6 mice (4–5 weeks). The sections of thoracic and lumbar DRG neurons were rapidly isolated in calcium and magnesium-free PBS with low temperature conditions (ice-bath environment). The isolated tissues were cut into pieces with scissor and incubated for 30 min with 0.1% collagenase and 0.025% trypsin which were diluted by DMEM-F12 at 37 °C. After digestion, neurons were gently dissociated using Pasteur pipettes and then plated onto poly-D-lysine pre-coated glass cover slips. DRG neurons were cultured for 24 h before use.
as §1

mice [2] = assay: Transmission electron microscopy of local nerve fibers in mice; assay type: in vivo, mouse; conditions: WT mice; plantar injection, 5% AITC or 30% malathion
Protocol: For mice, subcutaneous tissue from the site of exposure was removed and fixed by immediate immersion in ice-cold 2.5% glutaraldehyde. Subsequently, the samples were post-fixed in 1% OsO4 for 1 h, dehydrated with an ethanol series and embedded in epon resin. Sixty-nanometer ultra-thin sections were double stained with lead citrate and uranyl acetate and examined using an electron microscopy.

mouse DRG neurons [3] = assay: Single-cell calcium imaging (Fura-2/AM) of isolated DRG neurons; assay type: cell-based
Protocol: as §2
Calcium influx signals were monitored using the ratio metric fluorescent indicator dye Fura-2/AM at room temperature (23–25 °C). Cells were incubated with 2 μM Fura-2/AM, which was generated by diluting the stock solution with normal external solution, for 30 min at 37 °C. […] The maximum excitation wave length of Fura-2/AM was changed to 340 nm from 380 nm when combined with calcium ions. Fura-2/AM was excited at 340 and 380 nm with a rapid switching monochromator obtained from TILL Photonics, and the mean fluorescence intensity ratios (F340/F380) reflected real-time changes in the concentration of intracellular free calcium ions. The external solution used in the DRG whole-cell patch-clamp recordings was also used for calcium imaging. Solutions were switched using a gravity-fed continuous focal perfusion system.

mice [4] = assay: Behavioral testing of mice (paw-licking time after intraplantar injection); assay type: in vivo, mouse; conditions: WT mice; AITC 10 μl 5%, malathion 10 μl 30%, intraplantar
Protocol: The chosen mice were allowed to acclimate to the experimental environment for at least 2 h before testing. Intraplantar injection of 5% AITC and 30% malathion (10 μl) was achieved using separate injectors. Spontaneous pain evoked by the compounds was assessed by measuring the time (s) the mice spent on licking. For the HC030031 groups, 200 mg kg^−1 HC030031 was intragastrically administered, and then the test was conducted after 1 h. The testing phase was divided into two parts: 0–10 min and 11–60 min.

hens = assay type: in vivo, hen
Protocol: The chosen adult Hyline Brown hens were raised individually in stainless steel wire cages. After 7 days of acclimatization, the chosen hens were randomly divided into groups (n=6–10 for each group). The hens in the delayed neuropathy groups were administered a single dose of 750 mg kg^−1 TOCP and repeated doses of 75 mg kg^−1 malathion by gavage. TOCP and malathion were dissolved in corn oil and administered at 0.65 ml kg^−1. In the HC030031 treatment groups, 100 mg kg^−1 HC030031 was administered by gavage daily beginning at day 0 or day 11. All hens were examined daily for signs of delayed neurotoxicity. A five-point graded scale was used to describe the clinical symptoms of delayed neuropathy, with 0 indicating normal ambulation; (1) suspected ataxia (lack of strength in the legs and tottering); (2) mild ataxia (slow, clumsy and unsteady gait); (3) gross ataxia (waddling gait and staggering and falling despite being active); (4) mild paralysis (typical paralytic posture and lame appearance); and (5) complete paralysis (unable to maintain posture, stand up or move at all), as described previously.

cTRPA1 = target: T2, cTRPA1 (Gallus gallus, UniProt W8VTH6); assay: Whole-cell patch-clamp, HEK293 cells expressing cTRPA1; assay type: cell-based, chicken
T2 sequence (W8VTH6 1-1126): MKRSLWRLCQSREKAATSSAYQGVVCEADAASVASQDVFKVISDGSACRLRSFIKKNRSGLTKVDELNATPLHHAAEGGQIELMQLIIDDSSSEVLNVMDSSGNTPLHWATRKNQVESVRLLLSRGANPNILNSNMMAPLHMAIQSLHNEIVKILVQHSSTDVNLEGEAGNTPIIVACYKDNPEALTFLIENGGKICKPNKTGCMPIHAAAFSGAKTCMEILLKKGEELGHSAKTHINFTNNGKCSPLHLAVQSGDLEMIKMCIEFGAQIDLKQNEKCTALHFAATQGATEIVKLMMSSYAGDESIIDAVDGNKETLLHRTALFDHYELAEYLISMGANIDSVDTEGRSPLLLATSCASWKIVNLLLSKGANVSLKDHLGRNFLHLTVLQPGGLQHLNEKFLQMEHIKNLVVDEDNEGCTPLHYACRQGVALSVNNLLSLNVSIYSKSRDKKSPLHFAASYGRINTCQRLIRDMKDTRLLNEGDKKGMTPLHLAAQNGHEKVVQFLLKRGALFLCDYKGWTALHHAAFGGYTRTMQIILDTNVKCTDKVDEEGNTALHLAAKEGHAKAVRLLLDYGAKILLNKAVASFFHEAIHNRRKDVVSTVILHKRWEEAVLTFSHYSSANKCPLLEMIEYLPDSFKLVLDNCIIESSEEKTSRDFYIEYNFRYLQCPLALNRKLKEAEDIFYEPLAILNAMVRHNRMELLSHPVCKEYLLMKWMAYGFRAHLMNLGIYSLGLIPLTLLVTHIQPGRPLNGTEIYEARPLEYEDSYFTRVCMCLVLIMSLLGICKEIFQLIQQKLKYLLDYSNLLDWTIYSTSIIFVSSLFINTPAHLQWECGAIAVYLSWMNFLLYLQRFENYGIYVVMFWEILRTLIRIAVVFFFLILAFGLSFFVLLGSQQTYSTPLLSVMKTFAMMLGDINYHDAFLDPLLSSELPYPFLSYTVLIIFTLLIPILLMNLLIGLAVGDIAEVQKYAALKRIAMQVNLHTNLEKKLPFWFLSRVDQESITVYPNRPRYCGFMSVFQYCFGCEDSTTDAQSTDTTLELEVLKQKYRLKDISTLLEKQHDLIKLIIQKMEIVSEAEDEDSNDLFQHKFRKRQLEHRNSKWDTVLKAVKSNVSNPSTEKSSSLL
Protocol: All cell culture reagents were purchased from Life Technologies. HEK293 cells were transfected transiently with the corresponding plasmids using lipofectamine 2000 (Life Technologies). Transfection efficiency was monitored by co-transfecting EGFP plasmid which codes for the enhanced green fluorescent protein. Electrophysiological recordings were performed between 24 and 36 h after transfection.
as §1, with “The internal solution was as follows (in mM): 140 CsCl, 10 HEPES, 5 EGTA, 0.1 CaCl2 and 1 MgCl2, with pH adjusted to 7.2 by CsOH and osmolarity 295–300 mOsm.” left out

Sequence of mTRPA1 (Q8BLA8 whole entry): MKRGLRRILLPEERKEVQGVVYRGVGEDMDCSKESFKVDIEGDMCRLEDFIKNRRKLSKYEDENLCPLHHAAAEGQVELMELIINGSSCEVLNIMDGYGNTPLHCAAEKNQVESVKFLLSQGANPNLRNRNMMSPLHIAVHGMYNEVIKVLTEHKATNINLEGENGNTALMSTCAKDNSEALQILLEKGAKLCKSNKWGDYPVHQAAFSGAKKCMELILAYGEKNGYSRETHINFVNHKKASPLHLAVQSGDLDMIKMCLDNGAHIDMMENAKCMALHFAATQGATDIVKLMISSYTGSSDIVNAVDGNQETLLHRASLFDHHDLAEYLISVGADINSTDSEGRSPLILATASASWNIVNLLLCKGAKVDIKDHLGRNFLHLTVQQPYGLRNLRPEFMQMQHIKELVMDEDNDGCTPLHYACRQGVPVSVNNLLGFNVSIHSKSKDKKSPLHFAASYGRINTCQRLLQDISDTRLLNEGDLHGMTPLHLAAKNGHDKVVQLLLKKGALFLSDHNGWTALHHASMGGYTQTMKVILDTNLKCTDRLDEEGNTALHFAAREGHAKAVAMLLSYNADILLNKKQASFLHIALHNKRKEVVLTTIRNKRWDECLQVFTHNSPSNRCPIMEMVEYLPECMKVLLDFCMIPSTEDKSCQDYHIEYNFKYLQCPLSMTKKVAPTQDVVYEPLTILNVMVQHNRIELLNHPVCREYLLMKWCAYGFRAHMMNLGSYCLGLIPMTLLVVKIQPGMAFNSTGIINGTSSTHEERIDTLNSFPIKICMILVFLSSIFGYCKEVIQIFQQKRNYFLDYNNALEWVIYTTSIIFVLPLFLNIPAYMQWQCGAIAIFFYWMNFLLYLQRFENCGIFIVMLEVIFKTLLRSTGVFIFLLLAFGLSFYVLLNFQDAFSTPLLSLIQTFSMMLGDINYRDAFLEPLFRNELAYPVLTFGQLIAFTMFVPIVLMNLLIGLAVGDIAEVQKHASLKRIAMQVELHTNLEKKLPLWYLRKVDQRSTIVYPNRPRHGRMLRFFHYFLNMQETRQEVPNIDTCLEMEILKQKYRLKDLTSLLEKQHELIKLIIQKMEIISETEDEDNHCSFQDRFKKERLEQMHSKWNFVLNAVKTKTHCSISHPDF

Row | Compound | EC50 (mTRPA1) [µM] | activation of hTRPA1 whole-cell currents (hTRPA1) | activation of hTRPA1 whole-cell currents by NTE inhibitors (hTRPA1) | further results
1 | COP(=O)(OC)OC(Br)C(Cl)(Cl)Br (stereo not shown) [naled] | 10 to 40 | activated |  | 
2 | C=CCN=C=S [AITC, allyl isothiocyanate] |  | activated |  | action potential firing in WT small-diameter neurons (mouse DRG neurons [1]; 100 μM): bursts of action potentials; currents in neurons from Trpa1−/− mice (mouse DRG neurons [1]; Trpa1−/− neurons, 17/17): failed to induce currents; nerve fiber damage around the injection site (TEM) (mice [2]): damage of the myelin sheath; [Ca2+]i response of DRG neurons from Trpa1−/− mice (mouse DRG neurons [3]; Trpa1−/− neurons): thoroughly unresponsive; neurons displaying a robust increase in [Ca2+]i (mouse DRG neurons [3]; wild-type small-diameter neurons, sequential application of AITC and malathion, 197/451): ~ 44%; nocifensive behavior (paw-licking) after plantar injection (mice [4]): nociception-like response
3 | COP(=S)(OC)Oc1ccc(SC)c(C)c1 [fenthion] | 10 to 40 | activated |  | 
4 | CCOC(=O)OCC [Ethyl carbonate] |  |  | activated | 
5 | COc1nn(CSP(=S)(OC)OC)c(=O)s1 [methidathion] | 10 to 40 | activated |  | 
6 | O=S(=O)(Cl)c1ccccc1 [Benzenesulfonyl chloride] |  |  | activated | 
7 | O=S(=O)(Cl)Cc1ccccc1 [Phenylmethanesulfonyl chloride] |  |  | activated | 
8 | CCSC(=O)N(CC(C)C)CC(C)C [Butylate] |  |  | activated | 
9 | CCOP(=S)(OCC)Oc1nc(Cl)c(Cl)cc1Cl [chlorpyrifos] |  | activated |  | EC50 (mTRPA1; HEK293 cells, change in [Ca2+]i, read-out: EC50, activation of mTRPA1): 10 to 40 µM
10 | CN1CCC(=C2c3ccccc3CC(=O)c3sccc32)CC1 [ketotifen] |  |  |  | effect on TOCP-induced symptoms (OPIDN scores) (hens; hens, 100 mg kg−1 daily by gavage from day 0): significantly alleviated; IC50 (cTRPA1): 5.79 ± 1.18 µM
11 | CNCC[C@H](Oc1cccc2ccccc12)c1cccs1 [duloxetine] |  |  |  | effect on TOCP-induced symptoms (OPIDN scores) (hens; in vivo): significantly alleviated; IC50 (cTRPA1; manual whole-cell patch-clamp, TOCP-induced currents, read-out: IC50 on cTRPA1 channels): 4.69 ± 1.4 µM
12 | CCOP(=S)(OCC)O/N=C(\C#N)c1ccccc1 [phoxim] | 10 to 40 | activated |  | 

Reference: publication PMC5537602, “TRPA1 channel mediates organophosphate-induced delayed neuropathy” (Cell Discovery, 2017)
